According to ChEMBL document CHEMBL1123163, “Absolute configuration of (-)-5-benzoyl-1,2-dihydro-3H-pyrrolo[1,2-alpha]pyrrole-1-carboxylic acid, the active enantiomer of ketorolac” (1986):

Columns and labels:
Mus musculus = assay: Analgesic activity using mouse phenylquinone writhing assay along with 70 mg/kg of aspirin; assay type: functional
Rattus norvegicus = assay: Antiinflammatory activity using carrageenan rat paw edema assay along with 15 mg/kg of phenylbutazone; assay type: functional

## O=C(c1ccccc1)C1CCC2[C@@H](C(=O)O)CCN12 (stereo partly specified)
Mus musculus
  ED50: 699 mg/kg
Rattus norvegicus
  ED50: 170 mg/kg

## O=C(c1ccccc1)C1CCC2[C@H](C(=O)O)CCN12 (stereo partly specified)
Mus musculus
  ED50: < 3 mg/kg
Rattus norvegicus
  ED50: 3 mg/kg

## O=C(O)C1CCN2C(C(=O)c3ccccc3)CCC12 (racemic)
Mus musculus
  ED50: 399 mg/kg
Rattus norvegicus
  ED50: 96 mg/kg
